Results as given in patent US11331364B2, “Use for JNK inhibitor molecules for treatment of various diseases” (Xigen Inflammation Ltd., priority 2014, dated 2022).
Square brackets hold non-standard residues; d marks the D form. Peptide text beside a SMILES is read from it.

Legend:
[1] = system: Endotoxin-Induced Uveitis (EIU) model in rats; experiment: Action duration in endotoxin-induced uveitis (EIU), clinical scoring and PMN cells quantification; assay type: in vivo, rat
Experimental: […] (18) female Lewis rats (36 eyes) were randomly divided into 6 groups of 3 animals each. EIU was induced by a single footpad injection of 100 µl sterile pyrogen-free saline containing 200 µg of LPS (Lipopolysaccharides from Salmonella typhimurium, Sigma-Aldrich, France)(2 mg/ml).
Animals were treated 48 hours, 1 week, 2 weeks or 4 weeks before EIU induction by intravenous injection of the JNK inhibitor according to SEQ ID NO: 172 (“XG-104”) at a single dose of 1 mg/kg (dose volume 1 ml/kg) in the tail vein. Dexamethasone 2 mg/kg or vehicle (NaCl 0.9%) were injected intravenously immediately before EIU induction.
The effect of the JNK inhibitor according to SEQ ID NO: 172 (“XG-104”) on EIU was evaluated using clinical scoring and PMN cells quantification 24 hours after induction. Ocular examinations were performed by slit lamp at 24 hours i.e. at the clinical peak of the disease in this model. The intensity of clinical ocular inflammation was scored on a scale from 0 to 5 for each eye: • Grade 0: no inflammation, • Grade 1: presence of a minimal iris and conjunctival vasodilatation but without the observation of flare or cells in the anterior chamber (AC), • Grade 2: presence of moderate iris and conjunctival vessel dilation but without evident flare or cells in the AC, • Grade 3: presence of intense iris vessels dilation, flare and less than 10 cells per slit lamp, field in the AC, • Grade 4: presence of more severe clinical signs than grade 3, with more than 10 cells in the AC with or without the formation of a hypopyon, • Grade 5: presence of intense inflammatory reaction, fibrin formation in the AC and total seclusion of the pupil.
For histology, eighteen eyeballs (one per animal) were collected and fixed for 1 h at room temperature in phosphate buffered saline (PBS) containing 4% paraformaldehyde before being rinsed overnight in PBS. The next day, samples were embedded in optimal cutting temperature (OTC) compound (Tissue-Tek®, Sakura Finetek, Zoeterwoude, Netherland) and the optic nerve level using a cryostat (Leica CM 3050S, France) and mounted on super-frost slides for histology. After nuclei staining with DAPI (Sigma-Aldrich, France), sections were mounted in PBS/Glycerol (1/1) and observed by fluorescence photomicroscopy (FXA Microphot, Nikon, USA). Digitized micrographs were obtained usinga digital camera (Spot, BFI Optilas, France). PMN cells identified by the shape of their nuclei stained with DAPI, were quantified on histological sections. The analysis was performed with 2 different sections per eye at the optic nerve head level.
Twenty-four hours after LPS induction, clinical scores for the vehicle-treated rats were 4.6±0.2 (mean±SEM, n=8). Reduction was calculated as (grade in vehicle-treated eye—grade in test item treated eye)/(grade in vehicle-treated eye). A significant reduction (*p<0.05, **p<0.01) in the severity of the ocular inflammation was detected 24 hours after induction and intravenous treatment with the JNK inhibitor according to SEQ ID NO: 172 (“XG-104”) (1 mg/kg) administered 48 hours before EIU induction (mean score: 2.8±0.3), corresponding to a 40% (**) decrease of EIU scores compared with the score observed in vehicle group, 24 hours after induction and intravenous treatment with the JNK inhibitor according to SEQ ID NO: 172 (“XG-104”) (1 mg/kg) administered 1 week before EIU induction (mean score: 3.3±0.3), corresponding to a 27% (*) decrease of EIU scores compared with the score observed in vehicle group, and 24 hours after induction and intravenous treatment with the JNK inhibitor according to SEQ ID NO: 172 (“XG-104”) (1 mg/kg) administered 2 weeks before EIU induction (mean score: 3.0±0.2), corresponding to a 35% (**) decrease of EIU scores compared with the score observed in vehicle group. […]

PKR−/− neurons = experiment: Neuronal apoptosis after Aβ42 stress in PKR−/− primary cortical neurons; assay type: cell-based, mouse
Experimental: To obtain primary cortical neuronal cultures, E15.5 mice embryos were dissected in PBS (Phosphate Buffered Saline) 6% glucose, on ice. Embryos cortices were minced into small pieces and treated with PBS glucose trypsin (Sigma Aldrich, Saint-Louis, USA) for 20 min at 37° C. Dissociated cortical cells were cultured in Neurobasal media complemented with B27, Glutamax and penicillin-streptomycin (Gibco). Neurons were cultured at 37° C., 5% CO2 on pre-coated with poly-L-lysin (Sigma Aldrich) petri dishes. Neurons were cultured to maturity (7 days) before use.
To induce […] stress 2 μM of Aβ1-42 (Thermo Fisher Scientific, Mass., USA) were used during 5 h on cortical neurons. Aβ42-1 inversed peptide (Thermo Fisher Scientific) was used as negative control. AP 1-42 and Aβ42-1 were dissolved in pure water and incubated at 37° C. for 48 h before use.
To inhibit JNK, cortical neurons were pre-treated with 10 μM of XG-104 1 h before cell-stress treatment.
For immunoblot analysis cells were lysed on ice in a lysis buffer containing […] NaPi pH 7.8, […] NaCl, 1% Triton, 0.5% DOC, 0.1% SDS, 10% glycerol, 0.1 μM calyculin A, 1 mM Na3VO4 and 1× of a protease inhibitor cocktail (Sigma Aldrich). Lysates were sonicated and centrifugated 10 min at 15000 g at 4° C. The supernatant protein concentration was determined with the Micro BCA protein assay kit (Thermo Scientific). Thirty micrograms of proteins were resolved on SDS-PAGE and transferred onto nitrocellulose membrane. After blocking with TBS 5% skim milk, the membranes were probed with primary antibodies to JNK full, c-Jun, PKR, eIF2α (Santa Cruz, Danvers, USA), pJNK (Millipore, Billerica, USA), phosphor eIF2a (Thermo Fisher Scientific), PARP and tubulin (Cell Signaling, Danvers, USA). IR Dyes 800 and 700 (Rockland Immunochemical Inc, Gilbertsville, USA) antibodies were used as secondary antibodies. Blots were reveled with Odyssey imaging system (LI-COR Biosciences, Lincoln, USA).
For caspase 3 activity analysis culture cell supernatants containing degenerating and dead neurons, and cell medium were collected in parallel of adhesive neurons lysis. Culture cell supernatants were centrifugated 10 min at 15000 g at 4° C. Pellets were then resuspended in lysis buffer and caspase 3 activity was measured by using the Caspase 3 Assay kit reagents and protocol (Abcam, Cambridge, UK).

[2] = 1 mg/kg i.v. 1 week before EIU induction
[3] = 1 mg/kg i.v. 2 weeks before EIU induction
[4] = 1 mg/kg i.v. 4 weeks before EIU induction
[5] = 1 mg/kg i.v. 48 hours before EIU induction
[6] = PKR−/− neurons, 10 μM, vs Aβ42 treated PKR−/− neurons
[7] = dual inhibition of PKR and JNK, vs treated WT neurons

CC(C)C[C@H](NC(=O)[C@H](CC(N)=O)NC(=O)[C@H](CC(C)C)NC(=O)[C@@H](NC(=O)[C@@H](C)NC(=O)[C@@H]1CCCN1C(=O)[C@H](CCCNC(=N)N)NC(=O)[C@@H](CCCCN)NC(=O)[C@@H]1CCCN1C(=O)[C@H](CCCNC(=N)N)NC(=O)[C@@H](CCCNC(=N)N)NC(=O)[C@H](CCCNC(=N)N)NC(=O)[C@H](CCCNC(=N)N)NC(=O)[C@H](CCC(N)=O)NC(=O)[C@@H](CCCNC(=N)N)NC(=O)[C@H](CCCNC(=N)N)NC(=O)[C@H](CCCCN)NC(=O)[C@H](CCCCN)NC(=O)[C@H](N)CCCNC(=N)N)[C@@H](C)O)C(=O)N[C@H](Cc1ccccc1)C(N)=O [SEQ ID NO: 172, rKKRrQRRrRPkRPaTLNLf] (H-[dR]KKR[dR]QRR[dR]RP[dK]RP[dA]TLNL[dF]-NH2; N-terminus assumed)
clinical score (mean±SEM) [1, 2]: 3.3±0.3 | decrease of EIU scores vs vehicle group [1, 2]: 27% | clinical score (mean±SEM) [1, 3]: 3.0±0.2 | decrease of EIU scores vs vehicle group [1, 3]: 35% | number of PMN cells [1, 3]: significantly decreased | reduction of number of PMN cells vs vehicle [1, 3]: 88% | clinical score (mean±SEM) [1, 4]: 4.2±0.1 | decrease of EIU scores vs vehicle group [1, 4]: 9% | number of PMN cells [1, 4]: significantly decreased | reduction of number of PMN cells vs vehicle [1, 4]: 69% | clinical score (mean±SEM) [1, 5]: 2.8±0.3 | decrease of EIU scores vs vehicle group [1, 5]: 40% | decrease of caspase 3 activity (PKR−/− neurons; [6]): 61% | decrease of cleaved PARP expression level (PKR−/− neurons; [6]): 86% | decrease of cleaved caspase 3 expression level (PKR−/− neurons; [6]): 42% | decrease of PARP expression levels (PKR−/− neurons; [7]): 93% | decrease of caspase 3 activity (PKR−/− neurons; [7]): 87% | decrease of cleaved caspase 3 (PKR−/− neurons; [7]): 83%
